Experimental data as given in ChEMBL document CHEMBL3046358, “Multiple Pro-197 substitutions in the acetolactate synthase of rigid ryegrass (Lolium rigidum) and their impact on chlorsulfuron activity and plant growth” (Crop Prot, 2012).

Key:
Lolium rigidum [1] = test: Herbicidal activity against Lolium rigidum accession A10 assessed as fresh weight reduction applied at 4 times pre-emergence recommended rate relative to untreated control; format: functional; design: scale not given: the % may be the effect or the level left
Lolium rigidum [2] = test: Herbicidal activity against Lolium rigidum accession A12 assessed as fresh weight reduction applied at 1 times pre-emergence recommended rate applied in pots where terbufos had been incorporated into the soil relative to untreated control; format: functional; design: scale not given: the % may be the effect or the level left
Lolium rigidum [3] = test: Herbicidal activity against Lolium rigidum accession A01 assessed as emergence rate applied at 1 times pre-emergence recommended rate applied in pots where terbufos had been incorporated into the soil relative to untreated control; format: functional
Acetolactate synthase [4] = molecular target: T1, Acetolactate synthase (Lolium rigidum, UniProt A7XBP7); test: Inhibition of acetolactate synthase Ala-197/Ala-197 mutant in Lolium rigidum accession A16 leaves extracts by acetolactate production assay; conditions: read-out: I50
Lolium rigidum [5] = test: Herbicidal activity against Lolium rigidum accession A08 assessed as emergence rate applied at 4 times pre-emergence recommended rate relative to untreated control; format: functional
Lolium rigidum [6] = test: Herbicidal activity against Lolium rigidum accession A10 assessed as fresh weight reduction applied at 1 times pre-emergence recommended rate relative to untreated control; format: functional; design: scale not given: the % may be the effect or the level left
[7] = molecular target: T2, Acetolactate synthase (Lolium rigidum) (UniProt A7XBP7); test: Resistance index, ratio of I50 for acetolactate synthase Pro-197/Pro-197 mutant in Lolium rigidum accession A09 leaves extracts to I50 for acetolactate synthase in Lolium rigidum accession A01 leaves extracts
T2 sequence (whole entry): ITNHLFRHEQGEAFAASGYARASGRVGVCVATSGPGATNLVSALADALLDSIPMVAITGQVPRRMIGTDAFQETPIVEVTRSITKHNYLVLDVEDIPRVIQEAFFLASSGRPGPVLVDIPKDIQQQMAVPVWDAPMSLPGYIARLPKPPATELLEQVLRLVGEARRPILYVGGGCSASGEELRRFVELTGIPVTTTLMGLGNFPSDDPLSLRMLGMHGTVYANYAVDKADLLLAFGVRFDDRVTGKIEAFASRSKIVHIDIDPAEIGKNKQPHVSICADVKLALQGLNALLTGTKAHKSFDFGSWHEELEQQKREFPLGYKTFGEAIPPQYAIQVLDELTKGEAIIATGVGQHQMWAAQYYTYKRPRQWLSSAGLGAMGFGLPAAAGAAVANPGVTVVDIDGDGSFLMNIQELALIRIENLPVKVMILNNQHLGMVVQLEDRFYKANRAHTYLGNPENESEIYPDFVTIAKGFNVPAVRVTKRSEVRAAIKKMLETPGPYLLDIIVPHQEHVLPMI

Lolium rigidum [8] = test: Herbicidal activity against Lolium rigidum accession A08 assessed as emergence rate applied at 1 times pre-emergence recommended rate relative to untreated control; format: functional
Lolium rigidum [9] = test: Herbicidal activity against Lolium rigidum accession A04 assessed as emergence rate applied at 1 times pre-emergence recommended rate relative to untreated control; format: functional
Lolium rigidum [10] = test: Herbicidal activity against Lolium rigidum accession A15 assessed as fresh weight reduction applied at 1 times pre-emergence recommended rate relative to untreated control; format: functional; design: scale not given: the % may be the effect or the level left
Lolium rigidum [11] = test: Herbicidal activity against Lolium rigidum accession A06 assessed as emergence rate applied at 1 times pre-emergence recommended rate applied in pots where terbufos had been incorporated into the soil relative to untreated control; format: functional
[12] = molecular target: T2, Acetolactate synthase (Lolium rigidum); test: Resistance index, ratio of I50 for acetolactate synthase Ala-197/Ala-197 mutant in Lolium rigidum accession A16 leaves extracts to I50 for acetolactate synthase in Lolium rigidum accession A01 leaves extracts
Lolium rigidum [13] = test: Herbicidal activity against Lolium rigidum accession A07 assessed as fresh weight reduction applied at 4 times pre-emergence recommended rate relative to untreated control; format: functional; design: scale not given: the % may be the effect or the level left
Lolium rigidum [14] = test: Herbicidal activity against Lolium rigidum accession A03 assessed as fresh weight reduction applied at 1 times pre-emergence recommended rate relative to untreated control; format: functional; design: scale not given: the % may be the effect or the level left
[15] = molecular target: T2, Acetolactate synthase (Lolium rigidum); test: Resistance index, ratio of I50 for acetolactate synthase […]/Leu-197 mutant in Lolium rigidum accession A18 leaves extracts to I50 for acetolactate synthase in Lolium rigidum accession A01 leaves extracts
Lolium rigidum [16] = test: Herbicidal activity against Lolium rigidum accession A01 assessed as emergence rate applied at 4 times pre-emergence recommended rate relative to untreated control; format: functional
Lolium rigidum [17] = test: Herbicidal activity against Lolium rigidum accession A02 assessed as emergence rate applied at 1 times pre-emergence recommended rate applied in pots where terbufos had been incorporated into the soil relative to untreated control; format: functional
Lolium rigidum [18] = test: Herbicidal activity against Lolium rigidum accession A04 assessed as fresh weight reduction applied at 4 times pre-emergence recommended rate relative to untreated control; format: functional; design: scale not given: the % may be the effect or the level left
Lolium rigidum [19] = test: Herbicidal activity against Lolium rigidum accession A14 assessed as fresh weight reduction applied at 4 times pre-emergence recommended rate relative to untreated control; format: functional; design: scale not given: the % may be the effect or the level left
Lolium rigidum [20] = test: Herbicidal activity against Lolium rigidum accession A03 assessed as fresh weight reduction applied at 1 times pre-emergence recommended rate applied in pots where terbufos had been incorporated into the soil relative to untreated control; format: functional; design: scale not given: the % may be the effect or the level left
Lolium rigidum [21] = test: Herbicidal activity against Lolium rigidum accession A01 assessed as fresh weight reduction applied at 1 times pre-emergence recommended rate relative to untreated control; format: functional; design: scale not given: the % may be the effect or the level left
Lolium rigidum [22] = test: Herbicidal activity against Lolium rigidum accession A10 assessed as fresh weight reduction applied at 1 times pre-emergence recommended rate applied in pots where terbufos had been incorporated into the soil relative to untreated control; format: functional; design: scale not given: the % may be the effect or the level left
Acetolactate synthase [23] = molecular target: T3, Acetolactate synthase (Lolium rigidum, UniProt A7XBP7); test: Inhibition of acetolactate synthase in Lolium rigidum accession A01 leaves extracts by acetolactate production assay; conditions: read-out: I50
T3 sequence (A7XBP7 whole entry): T2 sequence (whole entry)

Lolium rigidum [24] = test: Herbicidal activity against Lolium rigidum accession A05 assessed as fresh weight reduction applied at 1 times pre-emergence recommended rate applied in pots where terbufos had been incorporated into the soil relative to untreated control; format: functional; design: scale not given: the % may be the effect or the level left
[25] = molecular target: T2, Acetolactate synthase (Lolium rigidum); test: Resistance index, ratio of I50 for acetolactate synthase Leu-197/Leu-197 mutant in Lolium rigidum accession A08 leaves extracts to I50 for acetolactate synthase in Lolium rigidum accession A01 leaves extracts
Lolium rigidum [26] = test: Herbicidal activity against Lolium rigidum accession A11 assessed as emergence rate applied at 1 times pre-emergence recommended rate relative to untreated control; format: functional
Lolium rigidum [27] = test: Herbicidal activity against Lolium rigidum accession A01 assessed as fresh weight reduction applied at 4 times pre-emergence recommended rate relative to untreated control; format: functional; design: scale not given: the % may be the effect or the level left
Lolium rigidum [28] = test: Herbicidal activity against Lolium rigidum accession A15 assessed as fresh weight reduction applied at 1 times pre-emergence recommended rate applied in pots where terbufos had been incorporated into the soil relative to untreated control; format: functional; design: scale not given: the % may be the effect or the level left
Lolium rigidum [29] = test: Herbicidal activity against Lolium rigidum accession A07 assessed as emergence rate applied at 1 times pre-emergence recommended rate relative to untreated control; format: functional
Acetolactate synthase [30] = molecular target: T1, Acetolactate synthase; test: Inhibition of acetolactate synthase Leu-197/Leu-197 mutant in Lolium rigidum accession A08 leaves extracts by acetolactate production assay; conditions: read-out: I50
Lolium rigidum [31] = test: Herbicidal activity against Lolium rigidum accession A13 assessed as emergence rate applied at 1 times pre-emergence recommended rate relative to untreated control; format: functional
Lolium rigidum [32] = test: Herbicidal activity against Lolium rigidum accession A15 assessed as emergence rate applied at 1 times pre-emergence recommended rate applied in pots where terbufos had been incorporated into the soil relative to untreated control; format: functional
Acetolactate synthase [33] = molecular target: T1, Acetolactate synthase; test: Inhibition of acetolactate synthase Ala-197/Ala-197 mutant in Lolium rigidum accession A05 leaves extracts by acetolactate production assay; conditions: read-out: I50
Lolium rigidum [34] = test: Herbicidal activity against Lolium rigidum accession A09 assessed as fresh weight reduction applied at 4 times pre-emergence recommended rate relative to untreated control; format: functional; design: scale not given: the % may be the effect or the level left
Lolium rigidum [35] = test: Herbicidal activity against Lolium rigidum accession A06 assessed as fresh weight reduction applied at 1 times pre-emergence recommended rate relative to untreated control; format: functional; design: scale not given: the % may be the effect or the level left

## COc1nc(C)nc(NC(=O)NS(=O)(=O)c2ccccc2Cl)n1 [CHLORSULFURON]
Lolium rigidum [1]
  Activity: 100%
Lolium rigidum [2]
  Activity: 100%
Lolium rigidum [3]
  Activity: 1%
Acetolactate synthase [4]
  IC50: 7.71 µM
Lolium rigidum [5]
  Activity: 45%
Lolium rigidum [6]
  Activity: 76%
[7]
  Ratio: 1
Lolium rigidum [8]
  Activity: 88%
Lolium rigidum [9]
  Activity: 2%
Lolium rigidum [10]
  Activity: 94%
Lolium rigidum [11]
  Activity: 92%
[12]
  Ratio: 257
Lolium rigidum [13]
  Activity: 49%
Lolium rigidum [14]
  Activity: 95%
[15]
  Ratio: 54
Lolium rigidum [16]
  Activity: 1%
Lolium rigidum [17]
  Activity: 0%
Lolium rigidum [18]
  Activity: 95%
Lolium rigidum [19]
  Activity: 96%
Lolium rigidum [20]
  Activity: 99%
Lolium rigidum [21]
  Activity: 98%
Lolium rigidum [22]
  Activity: 97%
Acetolactate synthase [23]
  IC50: 0.03 µM
Lolium rigidum [24]
  Activity: 0%
[25]
  Ratio: 564
Lolium rigidum [26]
  Activity: 42%
Lolium rigidum [27]
  Activity: 99%
Lolium rigidum [28]
  Activity: 97%
Lolium rigidum [29]
  Activity: 89%
Acetolactate synthase [30]
  IC50: 16.9 µM
Lolium rigidum [31]
  Activity: 1%
Lolium rigidum [32]
  Activity: 0%
Acetolactate synthase [33]
  IC50: 4.89 µM
Lolium rigidum [34]
  Activity: 95%
Lolium rigidum [35]
  Activity: 0%
